{"source": "patent US12433293B2", "about": "“Herbicidal compositions” (BAYER AKTIENGESELLSCHAFT, priority 2019, dated 2025)", "test_system": "harmful plant species", "experiment": "Specific trial examples: synergistic effect (Δ) of herbicidal binary compositions applied by the post-emergence method, observed vs Colby expected value (Tables 3.1-3.4)", "format": "in vivo", "data": [{"smiles": "CP(=O)(O)CCC(N)C(=O)O", "note": "(centres unmarked) [(B7.4) Glufosinate]", "values": [{"measurement": "Herbicidal action 21 DAT [%] against Abutilon theophrasti", "setting": "50 g a.i./ha, post-emergence", "result": 50, "unit": "%"}, {"measurement": "Herbicidal action 21 DAT [%] against Kochia Scoparia", "setting": "50 g a.i./ha, post-emergence", "result": 10, "unit": "%"}, {"measurement": "Herbicidal action 21 DAT [%] against Amaranthus palmeri", "setting": "50 g a.i./ha, post-emergence (Z25)", "result": 35, "unit": "%"}, {"measurement": "Herbicidal action 14 DAT [%] against Phalaris minor", "setting": "60 g a.i./ha, post-emergence", "result": 20, "unit": "%"}, {"measurement": "Herbicidal action 14 DAT [%] against Veronica hederifolia", "setting": "60 g a.i./ha, post-emergence", "result": 50, "unit": "%"}, {"measurement": "Herbicidal action 28 DAT [%] against Phalaris minor", "setting": "60 g a.i./ha, post-emergence", "result": 10, "unit": "%"}, {"measurement": "Herbicidal action 21 DAT [%] against Amaranthus palmeri", "setting": "150 g a.i./ha, post-emergence", "result": 90, "unit": "%"}, {"measurement": "Herbicidal action 21 DAT [%] against Kochia Scoparia", "setting": "150 g a.i./ha, post-emergence", "result": 50, "unit": "%"}, {"measurement": "Herbicidal action 14 DAT [%] against Centaurea cyanus", "setting": "180 g a.i./ha, post-emergence", "result": 60, "unit": "%"}, {"measurement": "Herbicidal action 14 DAT [%] against Lolium rigidum", "setting": "180 g a.i./ha, post-emergence", "result": 40, "unit": "%"}, {"measurement": "Herbicidal action 28 DAT [%] against Centaurea cyanus", "setting": "180 g a.i./ha, post-emergence", "result": 30, "unit": "%"}, {"measurement": "Herbicidal action 28 DAT [%] against Matricaria inodora", "setting": "180 g a.i./ha, post-emergence", "result": 60, "unit": "%"}, {"measurement": "Herbicidal action 28 DAT [%] against Phalaris minor", "setting": "180 g a.i./ha, post-emergence", "result": 30, "unit": "%"}, {"measurement": "Herbicidal action 28 DAT [%] against Poa annua L.", "setting": "180 g a.i./ha, post-emergence", "result": 20, "unit": "%"}, {"measurement": "Herbicidal action 14 DAT [%] against Centaurea cyanus", "setting": "540 g a.i./ha, post-emergence", "result": 85, "unit": "%"}, {"measurement": "Herbicidal action 14 DAT [%] against Lolium rigidum (resistant biotype)", "setting": "540 g a.i./ha, post-emergence", "result": 50, "unit": "%"}, {"measurement": "Herbicidal action 14 DAT [%] against Phalaris minor", "setting": "540 g a.i./ha, post-emergence", "result": 60, "unit": "%"}, {"measurement": "Herbicidal action 28 DAT [%] against Centaurea cyanus", "setting": "540 g a.i./ha, post-emergence", "result": 70, "unit": "%"}, {"measurement": "Herbicidal action 28 DAT [%] against Lolium rigidum", "setting": "540 g a.i./ha, post-emergence", "result": 40, "unit": "%"}, {"measurement": "Herbicidal action 28 DAT [%] against Lolium rigidum (resistant biotype)", "setting": "540 g a.i./ha, post-emergence", "result": 30, "unit": "%"}, {"measurement": "Herbicidal action 28 DAT [%] against Phalaris minor", "setting": "540 g a.i./ha, post-emergence", "result": 40, "unit": "%"}]}, {"smiles": "O=C(O)CNCP(=O)(O)O", "note": "[(B7.5) Glyphosate]", "values": [{"measurement": "Herbicidal action 28 DAT [%] against Centaurea cyanus", "setting": "50 g a.i./ha, post-emergence", "result": 10, "unit": "%"}, {"measurement": "Herbicidal action 28 DAT [%] against Phalaris minor", "setting": "50 g a.i./ha, post-emergence", "result": 30, "unit": "%"}, {"measurement": "Herbicidal action 21 DAT [%] against Amaranthus palmeri", "setting": "50 g a.i./ha, post-emergence (Z26)", "result": 60, "unit": "%"}, {"measurement": "Herbicidal action 14 DAT [%] against Centaurea cyanus", "setting": "150 g a.i./ha, post-emergence", "result": 50, "unit": "%"}, {"measurement": "Herbicidal action 28 DAT [%] against Bromus sterilis", "setting": "150 g a.i./ha, post-emergence", "result": 80, "unit": "%"}, {"measurement": "Herbicidal action 28 DAT [%] against Centaurea cyanus", "setting": "150 g a.i./ha, post-emergence", "result": 40, "unit": "%"}, {"measurement": "Herbicidal action 28 DAT [%] against Lolium rigidum", "setting": "150 g a.i./ha, post-emergence", "result": 30, "unit": "%"}, {"measurement": "Herbicidal action 28 DAT [%] against Matricaria inodora", "setting": "150 g a.i./ha, post-emergence", "result": 70, "unit": "%"}, {"measurement": "Herbicidal action 21 DAT [%] against Kochia Scoparia", "setting": "150 g a.i./ha, post-emergence (Z26)", "result": 20, "unit": "%"}, {"measurement": "Herbicidal action 14 DAT [%] against Centaurea cyanus", "setting": "450 g a.i./ha, post-emergence", "result": 60, "unit": "%"}, {"measurement": "Herbicidal action 28 DAT [%] against Bromus sterilis", "setting": "450 g a.i./ha, post-emergence", "result": 90, "unit": "%"}, {"measurement": "Herbicidal action 28 DAT [%] against Centaurea cyanus", "setting": "450 g a.i./ha, post-emergence", "result": 60, "unit": "%"}, {"measurement": "Herbicidal action 28 DAT [%] against Lolium rigidum (resistant biotype)", "setting": "450 g a.i./ha, post-emergence", "result": 70, "unit": "%"}, {"measurement": "Herbicidal action 28 DAT [%] against Poa annua L.", "setting": "450 g a.i./ha, post-emergence", "result": 85, "unit": "%"}, {"measurement": "Herbicidal action 16 DAT [%] against Richardia scabra", "setting": "720 g a.i./ha, post-emergence", "result": 62, "unit": "%"}, {"measurement": "Herbicidal action 42 DAT [%] against Geranium dissectum", "setting": "720 g a.i./ha, post-emergence", "result": 50, "unit": "%"}, {"measurement": "Herbicidal action 42 DAT [%] against Malva pusilla", "setting": "720 g a.i./ha, post-emergence", "result": 0, "unit": "%"}, {"measurement": "Herbicidal action 45 DAT [%] against Amaranthus tuberculatus", "setting": "720 g a.i./ha, post-emergence", "result": 15, "unit": "%"}, {"measurement": "Herbicidal action 45 DAT [%] against Ipomoea ssp", "setting": "720 g a.i./ha, post-emergence", "result": 0, "unit": "%"}, {"measurement": "Herbicidal action 45 DAT [%] against Lysimachia nummularia", "setting": "720 g a.i./ha, post-emergence", "result": 7, "unit": "%"}]}]}
